Converted amounts (≈) assume the structure as drawn.
What was measured:
Candida albicans [1] = test: Agar well diffusion; format: cell-based; conditions: 20 µg/mL, read-out: Inhibition Zone
Text: (§1) The antimicrobial efficiency of the synthesized unsymmetrical carbamide derivatives was screened using standard clinical pathogens derived from Department of Microbiology and Immunology, Faculty of Medicine (Boys), Al-Azhar University. The tested microbial pathogens used in this study were as follows, two Gram-positive bacteria (Bacillus subtilis, Staphylococcus aureus), two Gram-negative bacteria (Pseudomonas aerginousea, klebsiella pneumoniae) and two fungi (Candida albicans, Aspergillus fumgitus). Before each antimicrobial examination, pre-activation of each microbial pathogen was implemented using specific growth conditions. For bacterial ones, preinoculum was prepared using Nuitrent broth medium (Codalab, Spain) at 37 °C for 24 h. while the fungal pathogens were activated using Potato Dextrose broth (Codalab, Spain) at 28 °C for 48 h. Consequently, each tested pathogen justified its inoculum size based on Colony Forming Units (CFU) to be closed to […] during all antimicrobial tests.

Aspergillus fumagitus [2] = test: Agar well diffusion; format: cell-based; conditions: Aspergillus fumagitus; 20 µg/mL; read-out: Inhibition Zone
Text: as §1

Candida albicans [3] = test: MIC by microdilution (CLSI); format: cell-based; conditions: read-out: Minimum inhibitory concentration (MIC)
Protocol: (§2) For this purpose, serial dilution of the potent compounds was carried out to obtain the desired concentrations (i.e. 10–400 µg/mL). In brief, a defined weight for each selected compound was dissolved in dimethylsulphoxide (DMSO) and used as a stock solution[29]. The determination of the MIC value for each targeted compound was known as the lowest concentration of each sample that yielded a minimum number of colony-forming units (CFU) compared to the untreated samples[28].

Aspergillus fumagitus [4] = test: MIC by microdilution (CLSI); format: cell-based; conditions: read-out: Minimum inhibitory concentration (MIC)
Protocol: as §2

Staphylococcus aureus [5] = test: MIC by microdilution (CLSI); format: cell-based; conditions: read-out: Minimum inhibitory concentration (MIC)
Protocol: (§3) In brief, a defined weight for each selected compound was dissolved in dimethylsulphoxide (DMSO) and used as a stock solution[29].

Bacillus subtilis [6] = test: MIC by microdilution (CLSI); format: cell-based; conditions: read-out: Minimum inhibitory concentration (MIC)
Protocol: as §3

Klebsiella pneumonia [7] = test: MIC by microdilution (CLSI); format: cell-based; conditions: Klebsiella pneumoniae, read-out: Minimum inhibitory concentration (MIC)
Protocol: as §3

Pseudomonas aeruginosa [8] = test: MIC by microdilution (CLSI); format: cell-based; conditions: read-out: Minimum inhibitory concentration (MIC)
Protocol: as §3

Staphylococcus aureus [9] = test: Agar well diffusion; format: cell-based
Text: as §1, with “For bacterial ones, preinoculum was prepared using Nuitrent broth medium (Codalab, Spain) at 37 °C for 24 h. while the fungal pathogens were activated using Potato Dextrose broth (Codalab, Spain) at 28 °C for 48 h.” left out

Bacillus subtilis [10] = test: Agar well diffusion; format: cell-based; conditions: 20 µg/mL, read-out: Inhibition Zone
Text: as §1, with “For bacterial ones, preinoculum was prepared using Nuitrent broth medium (Codalab, Spain) at 37 °C for 24 h. while the fungal pathogens were activated using Potato Dextrose broth (Codalab, Spain) at 28 °C for 48 h.” left out

Klebsiella pneumonia [11] = test: Agar well diffusion; format: cell-based; conditions: Klebsiella pneumoniae; Klebsiella pneumonia; 20 µg/mL; read-out: Inhibition Zone
Text: as §1, with “For bacterial ones, preinoculum was prepared using Nuitrent broth medium (Codalab, Spain) at 37 °C for 24 h. while the fungal pathogens were activated using Potato Dextrose broth (Codalab, Spain) at 28 °C for 48 h.” left out

Pseudomonas aeruginosa [12] = test: Agar well diffusion; format: cell-based; conditions: 20 µg/mL, read-out: Inhibition Zone
Text: as §1, with “For bacterial ones, preinoculum was prepared using Nuitrent broth medium (Codalab, Spain) at 37 °C for 24 h. while the fungal pathogens were activated using Potato Dextrose broth (Codalab, Spain) at 28 °C for 48 h.” left out

[13] = tested on: HCT-116 (human colon cancer); test: MTT cytotoxicity assay; format: cell-based; conditions: 48 h; for IC50: HCT-116, MTT; for cytotoxicity at 100 µM: HCT-116, single dose 100 µM, read-out: Cytotoxicity (%)
Protocol: (§4) The MTT 3-(4,5-dimethylthiazol-2-yl)-2,5-diphenyl-tetrazolium bromide (Bio Basic Canada Inc. Toronto, Canada) assay was used to assess cell viability. The procedures were carried out in a biosafety class II sterile laminar air flow cabinet (Baker, SG403INT; Sanford, ME, USA). […] Cells were seeded at a density of (10^4 cells/well) into 96-well micro titer polypropylene plates and left to adhere for 24 h. The media was aspirated and the test chemicals were given to the cells in a single dose of 100 µM in DMSO. After 48 h of incubation, 40 µL of MTT salt ([…]) was applied to each well. […] Instead of the tested substances, the medium was applied to the untreated cells (negative control). […] The testing substance was dissolved in dimethylsulfoxide (DMSO), and its final concentration in the cells was less than 0.2%. The solvent concentration was the same for all medications and between the control and drug treatments at the same dilution.

MTT cytotoxicity assay = format: cell-based, human; conditions: human, BJ-1 normal skin fibroblast cells, BJ-1 normal cells
Protocol: as §4

[14] = tested on: MCF-7 (human breast cancer); test: MTT cytotoxicity assay; format: cell-based; conditions: Homo sapiens, MCF-7, 48 h; for IC50: MCF7, 48 h, MTT; for cytotoxicity at 100 µM: MCF7, single dose 100 µM, read-out: Cytotoxicity (%)
Protocol: as §4, with “The media was aspirated and the test chemicals were given to the cells in a single dose of 100 µM in DMSO.” left out

HCT-116 cells = test: Annexin V-FITC/PI necrosis cell apoptosis assay; format: cell-based, human; conditions: % of population
Protocol: (§5) The levels of necrosis and apoptosis in cells were determined by CytoFLEX Flow Cytometer. A total of 1 × 10^6 cells were washed in 1 × DPBS, and then were centrifuged at 500 × ϲ for 5 min. 1 μL of annexin V-FITC solution and 5 μL of dissolved PI were added to 100 μL of the cell suspensions that kept on ice and were incubated for 15 min in the dark. Cells were then analyzed by the CytoFLEX Flow Cytometer (Beckman Coulter Life Sciences, USA) and the percentage of apoptotic cells was determined using CytExpert Software.

MCF-7 cells = test: Annexin V-FITC/PI necrosis cell apoptosis assay; format: cell-based, human; conditions: % of population
Protocol: as §5

Structure (SMILES) | zone of inhibition at 20 µg/mL (Candida albicans [1]) | zone of inhibition at 20 µg/mL (Aspergillus fumagitus [2]) | MIC (Candida albicans [3]) | MIC (Aspergillus fumagitus [4]) | zone of inhibition at 20 µg/mL (Staphylococcus aureus [9]) | zone of inhibition at 20 µg/mL (Bacillus subtilis [10]) | zone of inhibition at 20 µg/mL (Klebsiella pneumonia [11]) | zone of inhibition at 20 µg/mL (Pseudomonas aeruginosa [12]) | melting point | further results
C[C@@H]1[C@H](O)[C@@H](C)/C=C/C=C/C=C/C=C/C=C/C=C/C=C/[C@H](O[C@@H]2O[C@H](C)[C@@H](O)[C@H](N)[C@@H]2O)C[C@@H]2O[C@](O)(C[C@@H](O)C[C@@H](O)[C@H](O)CC[C@@H](O)C[C@@H](O)CC(=O)O[C@H]1C)C[C@H](O)[C@H]2C(=O)O [Amphotericin B, reference compound] | 4 mm | 5 mm | 40 µg/mL (≈ 43.3 µM) | 20 µg/mL (≈ 21.6 µM) |  |  |  |  |  | 
CC1=C(C(=O)O)N2C(=O)[C@@H](NC(=O)[C@H](N)C3=CCC=CC3)[C@H]2SC1 [Cephradine, reference compound] |  |  |  |  |  |  |  |  |  | MIC (Staphylococcus aureus [5]): > 400 µg/mL; MIC (Bacillus subtilis [6]): 320 µg/mL (≈ 916 µM); MIC (Klebsiella pneumonia [7]): > 400 µg/mL; MIC (Pseudomonas aeruginosa [8]): > 400 µg/mL
Cc1ccc(S(=O)(=O)NC(=O)N2CCCC2)cc1 [Compound 9, N-tosylpyrrolidine-1-carboxamide] |  | 2 mm |  |  | 4 mm | 6 mm | 2 mm | 2 mm | 228 to 230 °C | 
Cc1ccc(S(=O)(=O)NC(=O)N2CCOCC2)cc1 [Compound 10, N-tosylmorpholine-4-carboxamide] |  | 2 mm |  |  | 4 mm | 2 mm | 2 mm |  | 210 to 211 °C | IC50 [13]: 72.6 ± 0.13 µM; cytotoxicity at 100 µM [13]: ≥ 65%; cytotoxicity at 48 h, 100 µM (MTT cytotoxicity assay): 19.7%
Cc1ccc(S(=O)(=O)NC(=O)N2CCN(C)CC2)cc1 [Compound 11, 4-Methyl-N-tosylpiperazine-1-carboxamide] |  |  |  |  | 2 mm |  | 2 mm |  | 190 to 192 °C | 
Cc1ccc(S(=O)(=O)NC(=O)N2CCCCC2)cc1 [Compound 12, N-tosylpiperidine-1-carboxamide] | 2 mm |  |  |  | 3 mm |  | 3 mm |  | 232 to 235 °C | 
Cc1ccc(S(=O)(=O)NC(=O)NC23CC4CC(CC(C4)C2)C3)cc1 [Compound 13, N-(adamantan-1-ylcarbamoyl)-4-methylbenzenesulfonamide] | 3 mm |  |  |  | 2 mm | 6 mm | 2 mm | 3 mm |  | IC50 [14]: 62.4 ± 0.128 µM; cytotoxicity at 100 µM [14]: ≥ 51%; IC50 [13]: 43.5 ± 0.15 µM; cytotoxicity at 100 µM [13]: ≥ 65%; cytotoxicity at 48 h, 100 µM (MTT cytotoxicity assay): 2.7%; early apoptosis (HCT-116 cells): 45.07%; late apoptosis (HCT-116 cells): 0.42%; early apoptosis (MCF-7 cells): 2.24%; late apoptosis (MCF-7 cells): 0.58%
Cc1ccc(NC(=O)N2CCCC2)cc1 [Compound 14, N-(p-tolyl)pyrrolidine-1-carboxamide] | 8 mm | 3 mm |  |  | 3 mm | 4 mm | 2 mm |  | 180 to 182 °C | 
Cc1ccc(NC(=O)N2CCN(C)CC2)cc1 [Compound 16, 4-Methyl-N-(p-tolyl)piperazine-1-carboxamide] | 5 mm | 3 mm | 10 µg/mL (≈ 42.9 µM) | 80 µg/mL (≈ 343 µM) | 2 mm | 2 mm | 5 mm | 3 mm | 252 to 253 °C | MIC (Staphylococcus aureus [5]): 320 µg/mL (≈ 1370 µM); MIC (Bacillus subtilis [6]): 160 µg/mL (≈ 686 µM); MIC (Pseudomonas aeruginosa [8]): 160 µg/mL (≈ 686 µM)
Cc1ccc(NC(=O)N2CCCCC2)cc1 [Compound 17, N-(p-tolyl)piperidine-1-carboxamide] | 2 mm | 3 mm | 20 µg/mL (≈ 91.6 µM) | 20 µg/mL (≈ 91.6 µM) | 2 mm | 5 mm | 3 mm | 3 mm | 230 to 232 °C | MIC (Staphylococcus aureus [5]): 80 µg/mL (≈ 366 µM); MIC (Bacillus subtilis [6]): 10 µg/mL (≈ 45.8 µM); MIC (Klebsiella pneumonia [7]): 80 µg/mL (≈ 366 µM); MIC (Pseudomonas aeruginosa [8]): 40 µg/mL (≈ 183 µM)
Cc1ccc(NC(=O)NC23CC4CC(CC(C4)C2)C3)cc1 [Compound 18, 1-(Adamantan-1-yl)-3-(p-tolyl)urea] | 2 mm | 3 mm |  |  |  | 2 mm |  |  | 180 to 182 °C | 
O=C(Nc1ccccc1)N1CCCC1 [Compound 19, N-phenylpyrrolidine-1-carboxamide] | 4 mm | 3 mm | 10 µg/mL (≈ 52.6 µM) | 40 µg/mL (≈ 210 µM) | 2 mm | 2 mm | 4 mm | 2 mm | 233 to 235 °C | MIC (Staphylococcus aureus [5]): 160 µg/mL (≈ 841 µM); MIC (Bacillus subtilis [6]): 80 µg/mL (≈ 421 µM); MIC (Pseudomonas aeruginosa [8]): 80 µg/mL (≈ 421 µM)
O=C(Nc1ccccc1)N1CCOCC1 [Compound 20, N-phenylmorpholine-4-carboxamide] | 3 mm | 2 mm |  |  |  | 2 mm | 4 mm | 3 mm |  | 
O=C(Nc1ccccc1)NC12CC3CC(CC(C3)C1)C2 [Compound 23, 1-(Adamantan-1-yl)-3-phenylurea] | 3 mm |  |  |  | 2 mm | 3 mm | 2 mm |  |  | IC50 [14]: 68.6 ± 0.116 µM; cytotoxicity at 100 µM [14]: ≥ 51%
COc1cccc2c1C(=O)c1c(O)c3c(c(O)c1C2=O)C[C@@](O)(C(=O)CO)C[C@@H]3O[C@H]1C[C@H](N)[C@H](O)[C@H](C)O1 [Doxorubicin, doxorubicin, reference compound] |  |  |  |  |  |  |  |  |  | IC50 [14]: 45 ± 0.123 µM; IC50 [13]: 65.1 ± 0.141 µM
OC(Cn1cncn1)(Cn1cncn1)c1ccc(F)cc1F [Fluconazole, reference compound] |  |  | > 400 µg/mL | > 400 µg/mL |  |  |  |  |  | 

Source: article PMC11224357, “Green, facile synthesis and evaluation of unsymmetrical carbamide derivatives as antimicrobial and anticancer agents with mechanistic insights” (Scientific Reports, 2024)
